Experimental data reported in PMC7356228, “Alvaxanthone, a Thymidylate Synthase Inhibitor with Nematocidal and Tumoricidal Activities” (Molecules, 2020).
Read-outs that look alike come from different tables or passages of the source.

How the values were obtained:
TsTS = TsTS (Trichinella spiralis, UniProt Q9NDD3); test: Inhibition of TS-catalyzed reaction (tritium release from [5-3H]dUMP); assay type: biochemical, T. spiralis; conditions: 20 µM dUMP; for IC50: IC50 Assessment; for remaining activity at 100 µM: compound 100 µM; for remaining activity at 1000 µM: compound 1000 µM
TsTS, sequence (Q9NDD3 entry or part of it): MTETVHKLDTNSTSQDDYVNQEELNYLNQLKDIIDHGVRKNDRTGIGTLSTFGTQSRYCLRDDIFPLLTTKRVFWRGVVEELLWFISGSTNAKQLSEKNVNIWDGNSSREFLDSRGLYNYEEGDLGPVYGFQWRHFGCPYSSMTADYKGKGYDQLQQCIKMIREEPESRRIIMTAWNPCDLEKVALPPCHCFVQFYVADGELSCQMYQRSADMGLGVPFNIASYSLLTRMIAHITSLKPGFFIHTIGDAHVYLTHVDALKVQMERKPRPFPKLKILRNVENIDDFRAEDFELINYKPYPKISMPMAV
From the text: (§1) The recombinant human, rat, mouse, T. spiralis and C. elegans TS proteins were produced, purified and separated into phosphorylated and non-phosphorylated fraction, as previously described. TS activity was monitored, following tritium release from [5-^3H]dUMP, and its inhibition studied as earlier reported.

CeTS = molecular target: T1, CeTS (Caenorhabditis elegans, UniProt Q9Y052); test: as above; assay type: biochemical, C. elegans
T1 sequence (Q9Y052 1-315): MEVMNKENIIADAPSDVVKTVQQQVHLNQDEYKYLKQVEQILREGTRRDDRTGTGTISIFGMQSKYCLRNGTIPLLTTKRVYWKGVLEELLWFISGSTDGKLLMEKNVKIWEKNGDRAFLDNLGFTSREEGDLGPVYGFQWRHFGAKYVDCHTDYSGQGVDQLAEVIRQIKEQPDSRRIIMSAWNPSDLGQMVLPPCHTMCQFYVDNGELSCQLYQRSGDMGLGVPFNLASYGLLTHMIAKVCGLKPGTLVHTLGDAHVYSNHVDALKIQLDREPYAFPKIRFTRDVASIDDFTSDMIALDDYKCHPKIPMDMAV
From the text: as §1

hTS = molecular target: T2, hTS (Homo sapiens, UniProt P04818); test: as above; assay type: biochemical; conditions: for IC50: read-out: IC50 Assessment
T2 construct: made in house
T2 sequence (P04818 whole entry): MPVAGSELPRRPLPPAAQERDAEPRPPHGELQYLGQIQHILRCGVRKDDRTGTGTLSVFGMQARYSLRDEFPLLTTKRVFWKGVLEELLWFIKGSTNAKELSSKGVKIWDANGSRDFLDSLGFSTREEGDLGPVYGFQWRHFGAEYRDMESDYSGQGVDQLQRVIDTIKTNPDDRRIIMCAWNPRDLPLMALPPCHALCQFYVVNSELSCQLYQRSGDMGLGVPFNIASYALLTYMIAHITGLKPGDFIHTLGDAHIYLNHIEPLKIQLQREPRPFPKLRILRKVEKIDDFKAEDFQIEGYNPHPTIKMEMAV
From the text: as §1

mTS = molecular target: T3, mTS (Mus musculus, UniProt P07607); test: as above; assay type: biochemical
T3 construct: made in house
T3 sequence (P07607 whole entry): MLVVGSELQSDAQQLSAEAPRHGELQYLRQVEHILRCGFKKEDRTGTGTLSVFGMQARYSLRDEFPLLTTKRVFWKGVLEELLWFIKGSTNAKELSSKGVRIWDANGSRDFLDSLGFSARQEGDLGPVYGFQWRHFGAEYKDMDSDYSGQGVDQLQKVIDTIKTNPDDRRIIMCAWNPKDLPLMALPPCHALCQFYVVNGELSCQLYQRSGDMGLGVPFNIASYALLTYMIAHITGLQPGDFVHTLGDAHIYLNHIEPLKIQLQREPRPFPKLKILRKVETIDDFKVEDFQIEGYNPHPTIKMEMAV
From the text: as §1

[1] = tested on: BJ normal human skin fibroblasts; test: Cytotoxicity, neutral red uptake (NR) assay; assay type: cell-based; conditions: Homo sapiens, Skin fibroblast
Protocol: (§2) Biological effect of alvaxanthone and rheediaxanthone B on normal (BJ) and cancer cells (U-118 MG and SCC-15) was estimated using two viability assays, the neutral red uptake (NR) and tetrazolium salts reduction (XTT) assays.
(§3) Human glioblastoma cells U-118 MG (ATCC® HTB-15), human squamous carcinoma cells SCC-15 (ATCC® CRL-1623), and normal human skin fibroblasts (ATCC® CRL-2522) were grown, their morphology checked, and number and viability estimated as earlier presented.
(§4) Influence of selected compounds on cells was tested by performing the cytotoxicity (NR and XTT) assays, proliferation assay, cell adhesion assay, cell migration assay, determination of intracellular ATP level, and apoptosis assay as previously reported.

[2] = tested on: U-118 MG human glioblastoma cells; test: Cytotoxicity, neutral red uptake (NR) assay; assay type: cell-based
Protocol: as §2, §3, §4

[3] = tested on: SCC-15 human squamous carcinoma cells; test: Cytotoxicity, neutral red uptake (NR) assay; assay type: cell-based; conditions: Homo sapiens
Protocol: as §2, §3, §4

C. elegans = test: Toxicity to C. elegans (population growth); conditions: in vivo
Protocol: C. elegans was maintained as previously described. The effect of the compounds studied on C. elegans population growth was determined as earlier presented.

[4] = 20 µM dUMP, 50 µM meTHF, read-out: IC50 Assessment
[5] = compound 100 µM, 20 µM dUMP, 50 µM meTHF, read-out: % Remaining Activity
[6] = neutral red assay, BJ, read-out: IC50
[7] = neutral red assay, U-118 MG, read-out: IC50
[8] = SCC-15, neutral red assay, read-out: IC50
[9] = 20 µM dUMP, 250 µM meTHF, read-out: IC50 Assessment
[10] = compound 100 µM, 20 µM dUMP, 250 µM meTHF, read-out: % Remaining Activity
[11] = compound 1000 µM, 20 µM dUMP, 250 µM meTHF, read-out: % Remaining Activity
[12] = IC50 Assessment, 20 µM dUMP, 250 µM meTHF
[13] = compound 10 µM, 20 µM dUMP, 250 µM meTHF
[14] = compound 667 µM, 20 µM dUMP, 250 µM meTHF
[15] = compound 1000 µM, 20 µM dUMP, 50 µM meTHF, read-out: % Remaining Activity
[16] = compound 50 µM, 20 µM dUMP, 250 µM meTHF
[17] = compound 500 µM, 20 µM dUMP, 250 µM meTHF

Row | Structure (SMILES) | IC50 (TsTS; 250 µM meTHF) [µM] | remaining activity at 1000 µM (TsTS; 250 µM meTHF) [%] | IC50 (CeTS; [9]) [µM] | remaining activity at 100 µM (CeTS; [10]) [%] | remaining activity at 1000 µM (CeTS; [11]) [%] | remaining activity at 100 µM (hTS; [10]) [%] | remaining activity at 1000 µM (hTS; [11]) [%] | remaining activity at 1000 µM (mTS; [11]) [%] | other results
1 | CC1Oc2c(c3c(c4oc5c(O)c(O)ccc5c(=O)c24)C(C)(C)C(C)O3)C1(C)C (stereo not drawn) [Rheediaxanthone C (18), Rheediaxanthone C] |  |  |  |  |  |  |  |  | IC50 (TsTS; 50 µM meTHF): > 100 µM; remaining activity at 100 µM (TsTS; 50 µM meTHF): 73%; IC50 (CeTS; [4]): > 100 µM; remaining activity at 100 µM (CeTS; [5]): 71%; IC50 (hTS; 20 µM dUMP, 50 µM meTHF): > 100 µM; remaining activity at 100 µM (hTS; [5]): 57%; remaining activity at 10 µM (mTS; compound 10 µM, 20 µM dUMP, 50 µM meTHF): 77%; remaining activity at 100 µM (mTS; [5]): 39%; IC50 [1, 6]: 5.95 µM; IC50 [2, 7]: 18.3 µM; IC50 [3, 8]: 11 µM; toxicity for the worm (C. elegans): does not show toxicity for the worm
2 | O=C(CCc1ccc(O)cc1)c1c(O)cc(O)cc1O [Phloretin (4), Phloretin] | > 1000 | 61 | > 100 | 82 | 48 | 86 | 31 | 45 | remaining activity at 100 µM (mTS; [10]): 78%
3 | COc1c(O)cc2oc(-c3ccccc3)c(O)c(=O)c2c1O [Alnusin (12), Alnusin] |  | > 100 | > 1000 |  | 80 | 85 | 30 | > 100 | 
4 | CC1=C[C@]2(O)C(=O)[C@H](C)C[C@@H]3[C@H](CC[C@](C)(O)C[C@H]2C1=O)C3(C)C [Jatrowediol (10), Jatrowediol] | > 1000 | 95 |  |  |  |  |  |  | remaining activity at 1000 µM (CeTS): 77%; IC50 (CeTS; [12]): > 1000 µM; remaining activity at 100 µM (hTS): 100%; remaining activity at 1000 µM (hTS): 43%; remaining activity at 1000 µM (mTS): 80%; IC50 (mTS; [12]): > 1000 µM
5 | CC(=O)Oc1c(O)cc(-c2oc3cc(O)cc(O)c3c(=O)c2O)cc1O [Myricetin-4′-OAc (7), Myricetin-4′-OAc] | > 1000 | 66 | > 100 | 69 | 28 | 56 | 31 | 49 | IC50 (hTS; 20 µM dUMP, 250 µM meTHF): > 1000 µM; remaining activity at 100 µM (mTS; [10]): 61%
6 | CC1(C)CCc2cc3c(cc2O1)OC(c1ccccc1)CC3=O (stereo not drawn) [6-Chromane-O-7-flavanone (11), 6-Chromane-O-7-flavanone] | > 1000 | 85 |  | 24 |  | 37 |  | 10 | remaining activity at 10 µM (CeTS; [13]): 100%; remaining activity at 10 µM (hTS; [13]): 100%; remaining activity at 100 µM (mTS; [10]): 91%
7 | O=C(/C=C/c1ccc(O)c(O)c1)O[C@@H]1C[C@](O)(C(=O)O)C[C@@H](O)[C@H]1O [Chlorogenic acid (3), Chlorogenic acid] | > 1000 | 94 | > 1000 |  | 82 |  | 76 | 83 | IC50 (hTS; 20 µM dUMP, 250 µM meTHF): > 1000 µM; IC50 (mTS; [9]): > 1000 µM
8 | COC(=O)/C=C/C(C)=C\C=C\C(C)=C\C=C\C=C(C)\C=C\C=C(C)\C=C\C(=O)O [Bixin (6), Bixin] |  |  |  |  |  |  |  |  | remaining activity at 67 µM (TsTS; compound 67 µM, 250 µM meTHF): 76%; remaining activity at 667 µM (TsTS; compound 667 µM, 250 µM meTHF): 47%; remaining activity at 67 µM (CeTS; compound 67 µM, 20 µM dUMP, 250 µM meTHF): 93%; remaining activity at 667 µM (CeTS; [14]): 46%; remaining activity at 667 µM (hTS; compound 667 µM (highest obtained concentration), 20 µM dUMP, 250 µM meTHF): > 100%; IC50 (mTS; [9]): > 667 µM; remaining activity at 667 µM (mTS; [14]): 73%
9 | COc1ccc2oc3cccc(O)c3c(=O)c2c1 [1-OH-7-OMe-Xanthone (19), 1-OH-7-OMe-Xanthone] |  |  |  |  |  |  |  |  | IC50 (TsTS; 50 µM meTHF): > 1000 µM; remaining activity at 1000 µM (TsTS; 50 µM meTHF): 89%; IC50 (CeTS; [4]): > 1000 µM; remaining activity at 1000 µM (CeTS; [15]): 81%; IC50 (hTS; 20 µM dUMP, 50 µM meTHF): > 1000 µM; remaining activity at 1000 µM (hTS; [15]): 100%; IC50 (mTS; [4]): > 1000 µM; remaining activity at 1000 µM (mTS; [15]): 94%; IC50 [1, 6]: > 40 µM; IC50 [2, 7]: 40 µM; IC50 [3, 8]: > 40 µM
10 | COc1cc(/C=C/C(=O)O[C@H]2[C@H](O[C@@H]3O[C@@H](C)[C@H](O)[C@@H](O)[C@H]3O)[C@@H](O)[C@H](OCCc3ccc(O)c(O)c3)O[C@@H]2CO)ccc1O [Leucosceptoside A (13), Leucosceptoside A] |  | > 100 | > 1000 |  | 83 |  | 66 | 77 | IC50 (hTS; 20 µM dUMP, 250 µM meTHF): > 1000 µM; IC50 (mTS; [9]): > 1000 µM
11 | CC12CCC3C(C1)c1c(cc(O)c(C(=O)c4ccccc4)c1OC3(C)C)O2 (stereo not drawn) [Clusiacitran A (9), Clusiacitran A] | > 1000 | 95 |  |  |  | 89 | 47 | 62 | remaining activity at 100 µM (CeTS): 88%; remaining activity at 1000 µM (CeTS): 44%; IC50 (CeTS; [12]): > 100 µM; IC50 (mTS; [12]): > 1000 µM
12 | O=C(OCC1=C[C@@H](O)[C@@H]2C=CO[C@@H](O[C@@H]3O[C@H](CO)[C@@H](O)[C@H](O)[C@H]3O)[C@H]12)c1ccc(O)cc1 [Agnuside (8), Agnuside] | > 1000 | 63 | > 100 | 100 | 36 | 90 | 47 | 72 | IC50 (mTS; [9]): > 1000 µM
13 | O=C1c2c(O)cccc2C([C@@H]2O[C@H](CO)[C@@H](O)[C@H](O)[C@H]2O)c2cc(CO)cc(O)c21 (stereo partly drawn) [Aloin (2), Aloin] | > 1000 | 93 | > 100 | 83 | 36 | 94 | 49 | 95 | IC50 (mTS; [9]): > 1000 µM
14 | CC(C)=CCc1c(O)ccc2c1OC(c1ccccc1)CC2=O (racemic) [(±)-7-Hydro-xy-8-C-prenyl flavanone] | > 100 | 25 | > 100 | 65 | 3 | 74 | 7 | 2 | remaining activity at 100 µM (TsTS; 250 µM meTHF): 90%; remaining activity at 100 µM (mTS; [10]): 71%
15 | COc1c(C2(O)COc3cc(O)cc(O)c3C2=O)ccc2c1C=CC(C)(C)O2 (stereo not drawn) [Sophoronol (5), Sophoronol] | > 100 | 35 | > 100 | 77 | 8 | 75 | 8 | 10 | remaining activity at 100 µM (TsTS; 250 µM meTHF): 74%; remaining activity at 100 µM (mTS; [10]): 75%
16 | COc1c(O)cc2oc3ccccc3c(=O)c2c1O [1,3-OH-2-OMe-Xanthone (16), 1,3-OH-2-OMe-Xanthone] | > 100 | 23 |  |  |  |  |  |  | IC50 (TsTS; 50 µM meTHF): > 100 µM; remaining activity at 100 µM (TsTS; 50 µM meTHF): 82%; remaining activity at 100 µM (TsTS; 250 µM meTHF): 92%; remaining activity at 1000 µM (TsTS; 50 µM meTHF): 32%; remaining activity at 1000 µM (CeTS): 65%; IC50 (CeTS; [12]): > 1000 µM; remaining activity at 100 µM (hTS): 54%; remaining activity at 1000 µM (hTS): 27%; remaining activity at 100 µM (mTS): 67%; remaining activity at 1000 µM (mTS): 32%; IC50 [1]: > 40 µM; IC50 ([2]; U-118-MG): > 40 µM; IC50 [3]: > 40 µM
17 | COc1cc(/C=C/C(=O)CC(=O)/C=C/c2ccc(O)c(OC)c2)ccc1O [Curcumin (1), Curcumin] | > 500 |  |  |  |  |  |  |  | remaining activity at 500 µM (TsTS; compound 500 µM, 250 µM meTHF): 73%; remaining activity at 50 µM (CeTS; [16]): 84%; remaining activity at 500 µM (CeTS; [17]): 30%; remaining activity at 50 µM (hTS; [16]): 86%; remaining activity at 500 µM (hTS; [17]): 20%; remaining activity at 50 µM (mTS; [16]): 83%; remaining activity at 500 µM (mTS; [17]): 37%
